Tests used:
Kit (Δ559) = molecular target: T1, Kit (Δ559) (Homo sapiens, UniProt P10721, DEL559-559); assay: Kit (Δ559) autophosphorylation and expression in NIH3T3 transfectants; assay type: cell-based; details: 72 h
T1 construct: expressed in transfected cells; host or cells: NIH3T3 (mouse fibroblasts)
Procedure: FIG. 7. Effects of Cpd1 on cell lines expressing constitutively activated forms of Kit. […] Cells were treated with 20 μM Cpd1 and photographed 24 h later under a phase-contrast microscope (original magnification X 100). B): Inhibition of Kit (Δ559) autophosphorylation and expression in NIH3T3 transfectants. Cells were treated with Cpd 1 at the indicated concentrations, for 72 h. Cell lysates were immunoprecipitated with anti-Kit antibody and subjected to Western blotting with anti-p-Tyr or anti-Kit antibodies. C): Inhibition of expression and autocrine loop-activated autophosphorylation of c-Kit in the SCLC cell line N592. Cells were treated with Cpd 1 at the indicated concentrations, for 24 h. Whole cell lysates were subjected to Western blotting with anti-Kit antibody or with an antibody specifically recognizing the tyrosine phosphorylated/activated Kit (p-Kit).
(§1) The following human medullary thyroid carcinoma (MTC) cell lines were used in this study. The TT cell line derived from a MEN2A-associated MTC characterized by expression of the RET oncogene carrying the mutation C634W. The MZ-CRC-1 cell line derived from MEN2B-associated MTC characterized by expression of the RET oncogene carrying the mutation M918T. […]
(§2) For immunoprecipitation experiments, cells were treated with Cpd1 or solvent for the indicated times. […] Protein concentration was determined by the BCA reagent (Pierce). […]

FGF-R3 mutant Y373C = molecular target: T2, FGF-R3 mutant Y373C (Homo sapiens, UniProt P22607, Y373C); assay: FGF-R3 (Y373C) autophosphorylation and expression in NIH3T3 transfectants; assay type: cell-based; details: 72 h
T2 construct: expressed in transfected cells; host or cells: NIH3T3 (mouse fibroblasts)
T2 sequence (P22607 23-806 Y373C): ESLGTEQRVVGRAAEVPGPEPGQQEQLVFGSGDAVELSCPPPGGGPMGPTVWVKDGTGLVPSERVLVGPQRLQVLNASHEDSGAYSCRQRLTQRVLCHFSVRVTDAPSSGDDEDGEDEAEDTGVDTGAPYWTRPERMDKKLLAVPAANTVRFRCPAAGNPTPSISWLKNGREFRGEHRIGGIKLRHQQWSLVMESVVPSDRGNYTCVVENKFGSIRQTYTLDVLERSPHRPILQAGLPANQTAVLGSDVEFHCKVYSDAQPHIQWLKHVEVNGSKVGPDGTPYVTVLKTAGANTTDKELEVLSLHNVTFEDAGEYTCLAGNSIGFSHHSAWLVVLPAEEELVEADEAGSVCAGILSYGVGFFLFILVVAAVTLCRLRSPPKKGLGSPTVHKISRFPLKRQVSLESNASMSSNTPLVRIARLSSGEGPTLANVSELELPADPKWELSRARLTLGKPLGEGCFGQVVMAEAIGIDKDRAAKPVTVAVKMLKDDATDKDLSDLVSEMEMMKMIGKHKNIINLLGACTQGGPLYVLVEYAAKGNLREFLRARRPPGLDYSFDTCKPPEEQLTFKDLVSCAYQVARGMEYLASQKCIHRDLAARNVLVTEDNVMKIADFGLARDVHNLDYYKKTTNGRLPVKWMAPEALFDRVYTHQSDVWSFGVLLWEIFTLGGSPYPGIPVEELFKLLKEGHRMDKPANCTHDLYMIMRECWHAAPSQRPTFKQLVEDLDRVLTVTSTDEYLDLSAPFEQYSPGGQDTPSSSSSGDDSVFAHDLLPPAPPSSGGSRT
Procedure: FIG. 6. Inhibition of autophosphorylation and expression of FGF-R1 and FGF-R3 receptors in whole cells by Cpd1. A): Swiss3T3 cells were serum starved for 24 h and then treated with Cpd1 at the indicated concentrations, for 18 h. After stimulation with 100 ng/ml FGF for 5 min, whole cell lysates were prepared and subjected to Western blotting with anti-pTyr or anti-FGF-R1. Protein loading by anti-actin blot is shown. B): NIH3T3 transformed by the FGF-R3 mutant Y373C were treated with the indicated concentrations, for 72 h. Cell extracts were immunoprecipitated with anti-FGF-R3 and then subjected to Western blotting with anti p-Tyr or anti-FGF-R3.
as §1, §2

[1] = tested on: NIH3T3^MEN2A(C634R) cells; assay: Reversion of transformed morphologic phenotype of NIH3T3 MEN2A(C634R) transfectants; assay type: cell-based, murine; details: 6 μM, 24 h, phase-contrast microscope
Procedure: FIG. 1. Effects of Cpd 1 on NIH3T3^MEN2A(C634R) transfectants expressing exogenous RET/MEN2A(C634R). […] Cells were exposed to 6 μM Cpd1 for 24 h and then photographed under a phase-contrast microscope (original magnification ×100). B) Antiproliferative effect. NIH3T3^MEN2A(C634R) cells and the parental NIH3T3 cells were treated with increasing concentrations of the drug for 72 h and then counted with a Coulter Counter. […] C) Inhibition of Ret/MEN2A(C634R) autophosphorylation and expression. Cells were treated with solvent (−) or 10 μM Cpd1 (+), for the indicated times. Whole cell-lysates were prepared and subjected to SDS-PAGE and Western blotting with anti-pTyr antibody. After stripping, the filter was reblotted with anti-Ret antibody. Arrows indicate the partial and fully glycosilated forms of the Ret/MEN2A receptor.
as §1

T1 sequence (P10721 with tags, fused parts or gaps DEL559-559): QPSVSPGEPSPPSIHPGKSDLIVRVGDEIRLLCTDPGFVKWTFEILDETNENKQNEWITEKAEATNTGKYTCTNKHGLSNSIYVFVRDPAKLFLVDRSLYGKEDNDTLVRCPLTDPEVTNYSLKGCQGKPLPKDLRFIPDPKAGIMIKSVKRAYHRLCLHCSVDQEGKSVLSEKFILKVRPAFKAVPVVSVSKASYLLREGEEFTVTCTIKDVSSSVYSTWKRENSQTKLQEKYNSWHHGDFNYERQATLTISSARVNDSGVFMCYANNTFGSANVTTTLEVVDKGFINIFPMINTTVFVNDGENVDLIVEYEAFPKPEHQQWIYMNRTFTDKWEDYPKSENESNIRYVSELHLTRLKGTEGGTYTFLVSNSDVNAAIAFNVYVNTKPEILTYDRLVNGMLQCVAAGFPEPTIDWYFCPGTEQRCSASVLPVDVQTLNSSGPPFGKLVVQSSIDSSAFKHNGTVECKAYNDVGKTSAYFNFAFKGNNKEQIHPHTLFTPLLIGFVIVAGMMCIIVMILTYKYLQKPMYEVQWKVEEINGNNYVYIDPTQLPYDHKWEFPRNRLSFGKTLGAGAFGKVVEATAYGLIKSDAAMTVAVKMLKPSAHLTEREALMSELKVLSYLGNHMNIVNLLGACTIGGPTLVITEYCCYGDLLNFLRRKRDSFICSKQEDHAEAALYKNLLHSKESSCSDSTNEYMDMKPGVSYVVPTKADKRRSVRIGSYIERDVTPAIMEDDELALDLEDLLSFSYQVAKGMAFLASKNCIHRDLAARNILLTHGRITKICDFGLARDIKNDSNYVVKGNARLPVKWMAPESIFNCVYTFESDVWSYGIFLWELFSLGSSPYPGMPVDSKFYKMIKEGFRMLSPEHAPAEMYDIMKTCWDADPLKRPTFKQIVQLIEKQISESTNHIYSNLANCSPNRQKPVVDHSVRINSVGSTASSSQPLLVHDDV

## COc1cc2c(cc1OC)/C(=C\c1ccc(O)cc1)C(=O)N2 [Cpd 1, (E)-1,3-dihydro-5,6-dimethoxy-3-[(4-hydroxyphenyl)methylene]-2H-indol-2-one]
Kit (Δ559)
  Kit (Δ559) expression: dose-dependent drug-induced inhibition
  Kit (Δ559) tyrosine phosphorylation: dose-dependent drug-induced inhibition
FGF-R3 mutant Y373C
  FGF-R3 (Y373C) expression: dose-dependent inhibition
  FGF-R3 (Y373C) tyrosine phosphorylation: dose-dependent inhibition
[1]
  Transformed morphologic phenotype: Reversion of the transformed morphologic phenotype
